Data from US20250090699A1, “FAP TARGETING CYCLIC PEPTIDES AND CONJUGATES THEREOF” (Novartis AG, priority 2023, published 2025).
Structures can show the parent of a compound that is named as a salt. Starred links: 1 amine or outer side, 2 acyl side, 3 side chain; linkers in the order of their positions; H or OH if unused. Non-standard residues stand in square brackets, D forms with d. Residues, ends and D or L forms follow the SMILES beside them. Groups on a side chain read outwards from the residue. *: point of attachment. NODAGA = O=C(O)CN1CCN(CC(=O)O)CCN(C(CCC(=O)*)C(=O)O)CC1; Trp(7-Cl) = N[C@@H](Cc1c[nH]c2c(Cl)cccc12)C(=O)O; Phe(4-CH2NH2) = NCc1ccc(C[C@H](N)C(=O)O)cc1; Piperazinyl(4-CH2COOH) = O=C(O)CN1CCN(*)CC1; 3Pal(6-NH2) = Nc1ccc(C[C@H](N)C(=O)O)cn1; AEF = NCCOc1ccc(C[C@H](N)C(=O)O)cc1; NMeF = CN[C@@H](Cc1ccccc1)C(=O)O; Ahp(2) = CCCCC[C@H](N)C(=O)O; hSer = N[C@@H](CCO)C(=O)O; dNMeA = CN[C@H](C)C(=O)O; AEEA = NCCOCCOCC(=O)O; CO = O=C([*:1])[*:2]; Propyl = CCC*

What was measured:
mouse FAP [1] = molecular target: T1, mouse FAP (Mus musculus, UniProt P97321); test: Surface plasmon resonance (SPR) for peptide affinity, mouse FAP; format: binding
T1 construct: biotinylated His, Avi tag, mouse FAP (26-761, FAP-M82Q5); His; Avi tag (biotinylated); purchased AcroBiosystems FAP-M82Q5
T1 sequence (P97321 26-761): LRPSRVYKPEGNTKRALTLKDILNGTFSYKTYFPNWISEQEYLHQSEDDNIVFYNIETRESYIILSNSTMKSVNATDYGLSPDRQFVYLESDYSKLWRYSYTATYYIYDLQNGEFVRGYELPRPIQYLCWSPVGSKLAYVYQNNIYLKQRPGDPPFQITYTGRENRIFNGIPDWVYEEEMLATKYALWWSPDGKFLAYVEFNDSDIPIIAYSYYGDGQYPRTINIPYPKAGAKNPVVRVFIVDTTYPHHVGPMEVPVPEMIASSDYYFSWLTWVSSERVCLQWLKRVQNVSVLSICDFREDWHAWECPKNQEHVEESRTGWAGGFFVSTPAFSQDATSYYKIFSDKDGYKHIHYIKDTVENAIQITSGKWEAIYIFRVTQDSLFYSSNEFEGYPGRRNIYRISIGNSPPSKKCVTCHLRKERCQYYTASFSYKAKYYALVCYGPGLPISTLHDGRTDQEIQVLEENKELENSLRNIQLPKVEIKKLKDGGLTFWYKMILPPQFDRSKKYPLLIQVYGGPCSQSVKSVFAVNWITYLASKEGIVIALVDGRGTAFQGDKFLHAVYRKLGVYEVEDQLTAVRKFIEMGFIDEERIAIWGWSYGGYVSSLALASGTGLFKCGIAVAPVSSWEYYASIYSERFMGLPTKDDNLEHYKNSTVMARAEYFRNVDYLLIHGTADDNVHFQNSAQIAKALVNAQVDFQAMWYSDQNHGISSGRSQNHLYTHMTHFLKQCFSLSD
Method: Peptide affinities (KD) were determined by SPR using a Biacore™ 8K device (Cytiva) towards the following proteins: biotinylated His, Avi tag, human FAP (26-760, FAP-H82Q6), biotinylated His, Avi tag, mouse FAP (26-761, FAP-M82Q5), His tag, human DPP4 (34-766, DP4-H82E3), all purchased from AcroBiosystems and His tag, mouse DPP4 (29-760, 954-SE) from R&D Systems. The FAP proteins and their homologous were diluted to a concentration of 2 μg/mL into acetate buffer pH 5.5, then immobilized onto a CM5 sensorchip (Cytiva, BR-1005-30) to reach a response around 2000 R U. The running buffer HBS-EP+pH 7.6 (20× from Teknova CAT. No: H8022) contained 10 mM HEPES pH 7.6, 150 mM NaCl, 3 mM EDTA, 0.05% Tween20 and 2% DMSO. Experiments were carried out at 25° C. using a flow rate of 30 μL/min. Compounds were tested in single cycle kinetic mode at 8 different concentrations. Curve fitting was performed using the Biacore™ 8K evaluation software. The sensorgrams were fitted by applying a 1:1 binding model to calculate kinetic rate constants and equilibrium dissociation constants (KD).
For this assay, the setup had the same conditions (flow rate, running buffer, peptide dilution) as described above for the CM5 method. The oligo CAP reagent obtained in the CAPture Kit (Ref. 28920234) was 1/5 diluted into running buffer and used with a contact time of 300 s at a flow rate of 2 μL/min. The human and mouse FAP constructs described above were used (from AcroBiosystems or produced in house). The FAP proteins were diluted to a concentration of 2 μg/mL into acetate pH 5.5, 0.05% Tween20 and used with a contact time of 600 s at a flow rate of 10 μL/min. The peptides were tested with an association time of 280 s followed by a dissociation time of 3000 s at a flow rate of 30 μL/min. The regeneration was done using the regeneration solution (8 M guanidine-HCl, 1 M NaOH) as obtained with a contact time of 270 s at a flow rate of 10 μL/min. […] The compounds marked with an asterisk were tested against human and mouse DDP4.

human FAP = molecular target: T2, human FAP (Homo sapiens, UniProt Q12884); test: Enzymatic FAP competition assay (Z-Gly-Pro-AMC fluorescence), human FAP; format: biochemical; settings: read-out: h. FAP, Enz., IC50
T2 construct: the biotinylated His, Avi tag, human FAP (26-760, FAP-H82Q6); His; Avi tag (biotinylated); purchased AcroBiosystems FAP-H82Q6
T2 sequence (Q12884 26-760): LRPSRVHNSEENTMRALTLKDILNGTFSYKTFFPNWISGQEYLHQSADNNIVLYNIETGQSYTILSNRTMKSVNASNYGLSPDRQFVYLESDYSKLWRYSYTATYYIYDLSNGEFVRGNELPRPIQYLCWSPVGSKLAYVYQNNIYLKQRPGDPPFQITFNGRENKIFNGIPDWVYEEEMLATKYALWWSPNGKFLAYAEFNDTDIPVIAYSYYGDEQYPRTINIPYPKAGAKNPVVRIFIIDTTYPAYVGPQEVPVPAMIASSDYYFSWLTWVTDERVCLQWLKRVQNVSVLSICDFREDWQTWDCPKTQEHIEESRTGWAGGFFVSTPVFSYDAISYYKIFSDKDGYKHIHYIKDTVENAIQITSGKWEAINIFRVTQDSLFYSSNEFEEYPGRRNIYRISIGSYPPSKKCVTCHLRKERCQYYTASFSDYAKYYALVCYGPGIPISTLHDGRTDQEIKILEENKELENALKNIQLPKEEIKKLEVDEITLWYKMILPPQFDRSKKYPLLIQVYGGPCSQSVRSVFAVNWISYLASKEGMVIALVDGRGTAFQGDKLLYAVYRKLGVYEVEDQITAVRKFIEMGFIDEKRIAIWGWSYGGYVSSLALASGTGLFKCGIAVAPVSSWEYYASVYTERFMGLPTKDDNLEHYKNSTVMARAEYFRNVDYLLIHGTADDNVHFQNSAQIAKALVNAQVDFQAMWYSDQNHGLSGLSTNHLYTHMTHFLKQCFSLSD
Method: (§1) Peptide potencies (IC50) to inhibit the FAP enzymatic activity were determined using a fluorescence-based assay towards the biotinylated His, Avi tag, human FAP (26-760, FAP-H82Q6) and the biotinylated His, Avi tag, mouse FAP (26-761, FAP-M82Q5). Standard assay conditions consisted of 20 μL total volume in white 384-well plates (Greiner, Ref. 784075), in 50 mM phosphate buffer pH 7.5 containing 150 mM NaCl, 0.05% Tween20 and 1% final DMSO. Tested peptides at 14 different concentrations up to 1 μM were added to 0.01 nM human or mouse FAP. The peptides were incubated for 24 hours together with the protein before adding the substrate 50 μM Z-Gly-Pro-AMC (I-1145 from Bachem). Samples were then incubated at 22-24° C. for 4 h before reading the fluorescence at excitation wavelength of 380 nm and emission wavelength of 460 nm using the Tecan Infinite® M1000 PRO. The high control (100% activity) was not containing any peptide, and an internal potent peptide was added at 10 μM concentration for the low control (100% inhibition). IC50 values were calculated by curve fitting using an in-house developed software (Novartis Helios software application) using the method described by Fomenko et al., 2006 (regression algorithms for nonlinear dose-response curve fitting). Following normalization of activity values for the wells to % inhibition (% inhibition=[(high control-sample)/(high control-low control)]x 100). IC50 fitting was carried out from the duplicated points.

mouse FAP [2] = molecular target: T1, mouse FAP; test: Enzymatic FAP competition assay (Z-Gly-Pro-AMC fluorescence), mouse FAP; format: biochemical; settings: read-out: m. FAP, Enz., IC50
Method: as §1

CCCCC[C@@H]1NC(=O)[C@H](Cc2ccc(O)cc2)NC(=O)[C@H](Cc2ccccc2)N(C)C(=O)CNC(=O)[C@H](CCCCN)NC(=O)[C@H]2CCCN2C(=O)[C@H](CC(=O)O)NC(=O)[C@H](Cc2ccc(O)cc2)NC(=O)CNC(=O)[C@H](Cc2c[nH]c3c(Cl)cccc23)NC1=O [Example A25, Lys-Gly-NMePhe-Tyr-Ahp-W(7Cl)-Gly-Tyr-Asp-D-Pro, TFA salt] (cyclo([Ahp(2)][Trp(7-Cl)]GYD[dP]KG[NMeF]Y))
Kd (mouse FAP [1]): 470 pM | IC50 (human FAP): 209 pM | IC50 (mouse FAP [2]): 860 pM

CCCOCC[C@@H]1NC(=O)[C@H](Cc2ccc(CNC(=O)COCCOCCNC(=O)CCC(C(=O)O)N3CCN(CC(=O)O)CCN(CC(=O)O)CC3)cc2)NC(=O)[C@H](Cc2ccccc2)N(C)C(=O)CNC(=O)CNC(=O)[C@H]2CCCN2C(=O)[C@H](CC(=O)O)NC(=O)[C@H](CCCCNC(=O)N2CCN(CC(=O)O)CC2)NC(=O)CNC(=O)[C@H](Cc2c[nH]c3ccccc23)NC1=O (stereo partly drawn) [Example B33, Gly-Gly-NMePhe-F(4amPEG2NHNODAGA)-hS(pr)-Trp-Gly-K(COpipzaa)-Asp-D-Pro] (cyclo(D[dP]GG[NMeF][Phe(4-CH2NH2)]([AEEA-NODAGA])[hSer](Propyl)WGK([CO-Piperazinyl(4-CH2COOH)])))
Kd (mouse FAP [1]): < 34 pM | IC50 (human FAP): 15 pM | IC50 (mouse FAP [2]): 39 pM

CCCCCC[C@@H]1NC(=O)[C@H](Cc2ccc(CNC(=O)COCCOCCNC(=O)CCC(C(=O)O)N3CCN(CC(=O)O)CCN(CC(=O)O)CC3)cc2)NC(=O)[C@H](Cc2ccccc2)N(C)C(=O)CNC(=O)CNC(=O)[C@H]2CCCN2C(=O)[C@H](CC(=O)O)NC(=O)[C@H](CCCCNC(=O)N2CCN(CC(=O)O)CC2)NC(=O)CNC(=O)[C@H](Cc2c[nH]c3ccccc23)NC1=O (stereo partly drawn) [Example B38, Gly-Gly-NMePhe-F(4amPEG2NHNODAGA)-Aoc-Trp-Gly-K(COpipzaa)-Asp-D-Pro]
Kd (mouse FAP [1]): < 76 pM | IC50 (human FAP): 31 pM | IC50 (mouse FAP [2]): 73 pM

CCCCC[C@@H]1NC(=O)[C@H](Cc2ccc(O)cc2)NC(=O)[C@H](Cc2ccccc2)N(C)C(=O)CNC(=O)CNC(=O)[C@@H](C)N(C)C(=O)[C@H](CC(=O)O)NC(=O)[C@H](Cc2ccc(O)cc2)NC(=O)CNC(=O)[C@H](Cc2c[nH]c3ccccc23)NC1=O [Example A65, Gly-Gly-NMePhe-Tyr-Ahp-Trp-Gly-Tyr-Asp-D-NMeA] (cyclo([Ahp(2)]WGYD[dNMeA]GG[NMeF]Y))
Kd (mouse FAP [1]): 1800 pM | IC50 (human FAP): 340 pM | IC50 (mouse FAP [2]): 2800 pM

CCCCC[C@@H]1NC(=O)[C@H](Cc2ccc(OCCN)cc2)NC(=O)[C@H](Cc2ccccc2)N(C)C(=O)CNC(=O)CNC(=O)[C@H]2CCCN2C(=O)[C@H](CC(=O)O)NC(=O)[C@H](Cc2ccc(N)nc2)NC(=O)CNC(=O)[C@H](Cc2c[nH]c3ccccc23)NC1=O [Example A45, Gly-Gly-NMePhe-F(4OEtNH2)-Ahp-Trp-Gly-3PyA(6NH2)-Asp-D-Pro, TFA salt] (cyclo([AEF][Ahp(2)]WG[3Pal(6-NH2)]D[dP]GG[NMeF]))
Kd (mouse FAP [1]): 540 pM | IC50 (human FAP): 192 pM | IC50 (mouse FAP [2]): 930 pM
